Reference: PMC10905675, “INX-315, a Selective CDK2 Inhibitor, Induces Cell Cycle Arrest and Senescence in Solid Tumors” (Cancer Discovery, 2023)

What was measured:
Experiment in all cases: SelectScreen LanthaScreen Binding
Conditions in all cases: INX-0315 at 100nM
[1] = target: T1, AAK1 (Homo sapiens, UniProt Q2M2I8)
T1 construct: purchased Thermo Fisher Scientific SelectScreen (plus Nanosyn / Reaction Biology for CDK/cyclin lines)
Procedure, shortened: (§1)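 Kinase profiling used the provider's preestablished standard conditions. A primary screen tested INX-315 at a single 100 nmol/L in 1% DMSO. Follow-up testing used 10-point dose–response curves running from 1 µmol/L down to 0.0495 nmol/L.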

[2] = target: T2, ABL1 Q252H (Homo sapiens, UniProt P00519, Q252H)
T2 construct: purchased Thermo Fisher Scientific SelectScreen (plus Nanosyn / Reaction Biology for CDK/cyclin lines)
Procedure, shortened: as §1

[3] = target: T3, AMPK (A1/B1/G2) (Homo sapiens, UniProt Q13131)
T3 construct: purchased Thermo Fisher Scientific SelectScreen (plus Nanosyn / Reaction Biology for CDK/cyclin lines)
Procedure, shortened: as §1

[4] = target: T4, AMPK (A2/B2/G1) (Homo sapiens, UniProt P54646)
T4 construct: purchased Thermo Fisher Scientific SelectScreen (plus Nanosyn / Reaction Biology for CDK/cyclin lines)
Procedure, shortened: as §1

[5] = target: T5, AXL R499C (Homo sapiens, UniProt P30530, R499C)
T5 construct: purchased Thermo Fisher Scientific SelectScreen (plus Nanosyn / Reaction Biology for CDK/cyclin lines)
Procedure, shortened: as §1

[6] = target: T6, BRAF (Homo sapiens, UniProt P15056)
T6 construct: purchased Thermo Fisher Scientific SelectScreen (plus Nanosyn / Reaction Biology for CDK/cyclin lines)
Procedure, shortened: as §1

[7] = target: T7, CASK (Homo sapiens, UniProt O14936)
T7 construct: purchased Thermo Fisher Scientific SelectScreen (plus Nanosyn / Reaction Biology for CDK/cyclin lines)
T7 sequence (O14936 whole entry): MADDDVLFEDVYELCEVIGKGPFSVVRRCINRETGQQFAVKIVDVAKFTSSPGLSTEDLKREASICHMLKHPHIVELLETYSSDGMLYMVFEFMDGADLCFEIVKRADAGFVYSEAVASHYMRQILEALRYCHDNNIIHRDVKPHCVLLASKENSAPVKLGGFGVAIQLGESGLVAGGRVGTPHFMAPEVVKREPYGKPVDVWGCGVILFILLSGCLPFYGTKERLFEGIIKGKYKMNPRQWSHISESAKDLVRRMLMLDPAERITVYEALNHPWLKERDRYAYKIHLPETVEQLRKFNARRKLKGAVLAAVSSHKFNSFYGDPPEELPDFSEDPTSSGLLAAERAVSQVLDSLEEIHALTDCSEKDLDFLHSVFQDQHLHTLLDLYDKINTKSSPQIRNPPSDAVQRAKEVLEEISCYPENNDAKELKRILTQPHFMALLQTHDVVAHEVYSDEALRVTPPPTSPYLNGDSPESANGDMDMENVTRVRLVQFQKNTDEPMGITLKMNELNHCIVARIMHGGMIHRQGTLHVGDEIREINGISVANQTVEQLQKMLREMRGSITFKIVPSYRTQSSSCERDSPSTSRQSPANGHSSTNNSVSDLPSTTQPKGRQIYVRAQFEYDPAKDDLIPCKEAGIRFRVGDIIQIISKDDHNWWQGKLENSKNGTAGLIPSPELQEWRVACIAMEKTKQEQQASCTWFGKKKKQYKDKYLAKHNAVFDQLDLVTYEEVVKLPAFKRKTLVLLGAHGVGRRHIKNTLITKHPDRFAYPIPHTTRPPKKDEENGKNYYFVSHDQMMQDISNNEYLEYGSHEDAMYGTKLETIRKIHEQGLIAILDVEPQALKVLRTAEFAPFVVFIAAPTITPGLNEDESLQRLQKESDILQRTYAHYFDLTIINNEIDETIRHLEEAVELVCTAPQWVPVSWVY
Procedure, shortened: as §1

[8] = target: T8, CDK2/cyclin O (Homo sapiens, UniProt P24941)
T8 construct: purchased Thermo Fisher Scientific SelectScreen (plus Nanosyn / Reaction Biology for CDK/cyclin lines)
Procedure, shortened: as §1

[9] = target: T9, CDK3/cyclin E1 (Homo sapiens, UniProt Q00526)
T9 construct: purchased BPS 40103
Procedure, shortened: as §1

[10] = target: T10, DDR1 (Homo sapiens, UniProt Q08345)
T10 construct: purchased Thermo Fisher Scientific SelectScreen (plus Nanosyn / Reaction Biology for CDK/cyclin lines)
Procedure, shortened: as §1

[11] = target: T11, EIF2AK2 (PKR) (Homo sapiens, UniProt P19525)
T11 construct: purchased Thermo Fisher Scientific SelectScreen (plus Nanosyn / Reaction Biology for CDK/cyclin lines)
Procedure, shortened: as §1

[12] = target: T12, ERN1 (Homo sapiens, UniProt O75460)
T12 construct: purchased Thermo Fisher Scientific SelectScreen (plus Nanosyn / Reaction Biology for CDK/cyclin lines)
Procedure, shortened: as §1

[13] = target: T13, FGFR1 V561M (Homo sapiens, UniProt P11362, V561M)
T13 construct: purchased Thermo Fisher Scientific SelectScreen (plus Nanosyn / Reaction Biology for CDK/cyclin lines)
Procedure, shortened: as §1

[14] = target: T14, FGFR3 K650M (Homo sapiens, UniProt P22607, K650M)
T14 construct: purchased Thermo Fisher Scientific SelectScreen (plus Nanosyn / Reaction Biology for CDK/cyclin lines)
Procedure, shortened: as §1

[15] = target: T15, FYN A (Homo sapiens, UniProt P06241)
T15 construct: purchased Thermo Fisher Scientific SelectScreen (plus Nanosyn / Reaction Biology for CDK/cyclin lines)
Procedure, shortened: as §1

[16] = target: T16, GRK1 (Homo sapiens, UniProt Q15835)
T16 construct: purchased Thermo Fisher Scientific SelectScreen (plus Nanosyn / Reaction Biology for CDK/cyclin lines)
Procedure, shortened: as §1

[17] = target: T17, KIT T670E (Homo sapiens, UniProt P10721, T670E)
T17 construct: purchased Thermo Fisher Scientific SelectScreen (plus Nanosyn / Reaction Biology for CDK/cyclin lines)
T17 sequence (P10721 26-976 T670E): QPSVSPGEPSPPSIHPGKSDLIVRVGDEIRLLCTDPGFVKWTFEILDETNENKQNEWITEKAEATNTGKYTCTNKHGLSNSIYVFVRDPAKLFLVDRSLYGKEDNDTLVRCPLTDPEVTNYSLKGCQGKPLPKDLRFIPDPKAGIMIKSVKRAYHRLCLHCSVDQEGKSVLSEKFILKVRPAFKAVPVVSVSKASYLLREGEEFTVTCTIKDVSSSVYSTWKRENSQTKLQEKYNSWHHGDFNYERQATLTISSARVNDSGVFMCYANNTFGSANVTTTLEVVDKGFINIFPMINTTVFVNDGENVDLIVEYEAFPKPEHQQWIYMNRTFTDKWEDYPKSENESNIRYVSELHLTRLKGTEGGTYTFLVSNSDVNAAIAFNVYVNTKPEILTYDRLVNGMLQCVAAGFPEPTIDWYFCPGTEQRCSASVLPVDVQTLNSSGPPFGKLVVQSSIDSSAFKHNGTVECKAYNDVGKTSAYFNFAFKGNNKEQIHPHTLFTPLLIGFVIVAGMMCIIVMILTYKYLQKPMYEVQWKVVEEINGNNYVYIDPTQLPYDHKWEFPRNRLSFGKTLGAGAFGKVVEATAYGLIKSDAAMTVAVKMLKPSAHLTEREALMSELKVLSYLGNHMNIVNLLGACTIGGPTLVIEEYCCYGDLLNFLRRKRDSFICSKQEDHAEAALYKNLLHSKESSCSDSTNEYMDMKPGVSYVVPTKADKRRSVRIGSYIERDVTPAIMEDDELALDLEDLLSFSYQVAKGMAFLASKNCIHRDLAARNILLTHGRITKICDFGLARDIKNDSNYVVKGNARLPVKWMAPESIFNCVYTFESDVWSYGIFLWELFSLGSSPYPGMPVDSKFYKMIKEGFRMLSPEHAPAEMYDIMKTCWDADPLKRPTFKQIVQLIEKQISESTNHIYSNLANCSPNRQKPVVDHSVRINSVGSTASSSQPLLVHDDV
Procedure, shortened: as §1

[18] = target: T18, KIT V559D T670I (Homo sapiens, UniProt P10721, T670I/V559D)
T18 construct: purchased Thermo Fisher Scientific SelectScreen (plus Nanosyn / Reaction Biology for CDK/cyclin lines)
T18 sequence (P10721 26-976 V559D/T670I): as the sequence (P10721 26-976 T670E) above, with V534D, E645I counted along it
Procedure, shortened: as §1

[19] = target: T19, KIT V654A (Homo sapiens, UniProt P10721, V654A)
T19 construct: purchased Thermo Fisher Scientific SelectScreen (plus Nanosyn / Reaction Biology for CDK/cyclin lines)
T19 sequence (P10721 26-976 V654A): as the sequence (P10721 26-976 T670E) above, with V629A, E645T counted along it
Procedure, shortened: as §1

[20] = target: T20, LATS2 (Homo sapiens, UniProt Q9NRM7)
T20 construct: purchased Thermo Fisher Scientific SelectScreen (plus Nanosyn / Reaction Biology for CDK/cyclin lines)
Procedure, shortened: as §1

[21] = target: T21, LIMK1 (Homo sapiens, UniProt P53667)
T21 construct: purchased Thermo Fisher Scientific SelectScreen (plus Nanosyn / Reaction Biology for CDK/cyclin lines)
T21 sequence (P53667 whole entry): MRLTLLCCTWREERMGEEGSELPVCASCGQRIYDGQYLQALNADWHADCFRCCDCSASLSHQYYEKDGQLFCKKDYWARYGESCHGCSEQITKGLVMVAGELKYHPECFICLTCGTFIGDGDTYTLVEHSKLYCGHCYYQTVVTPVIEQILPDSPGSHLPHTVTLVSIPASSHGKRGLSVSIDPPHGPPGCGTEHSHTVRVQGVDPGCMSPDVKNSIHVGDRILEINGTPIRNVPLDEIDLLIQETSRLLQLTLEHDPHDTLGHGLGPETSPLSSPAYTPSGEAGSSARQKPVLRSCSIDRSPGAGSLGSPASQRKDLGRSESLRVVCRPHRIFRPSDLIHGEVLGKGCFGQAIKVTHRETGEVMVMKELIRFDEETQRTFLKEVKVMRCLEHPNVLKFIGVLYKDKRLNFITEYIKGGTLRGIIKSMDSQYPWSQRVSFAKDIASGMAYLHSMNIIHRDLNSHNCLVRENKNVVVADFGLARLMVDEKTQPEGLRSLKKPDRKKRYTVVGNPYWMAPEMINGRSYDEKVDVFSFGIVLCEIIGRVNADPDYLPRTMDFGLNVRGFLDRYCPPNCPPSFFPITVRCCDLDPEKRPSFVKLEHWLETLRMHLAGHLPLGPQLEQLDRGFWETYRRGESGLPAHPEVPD
Procedure, shortened: as §1

[22] = target: T22, LIMK2 (Homo sapiens, UniProt P53671)
T22 construct: purchased Thermo Fisher Scientific SelectScreen (plus Nanosyn / Reaction Biology for CDK/cyclin lines)
Procedure, shortened: as §1

[23] = target: T23, MAP2K1 (MEK1) (Homo sapiens, UniProt Q02750)
T23 construct: purchased Thermo Fisher Scientific SelectScreen (plus Nanosyn / Reaction Biology for CDK/cyclin lines)
Procedure, shortened: as §1

[24] = target: T24, MAP2K6 (MKK6) (Homo sapiens, UniProt P52564)
T24 construct: purchased Thermo Fisher Scientific SelectScreen (plus Nanosyn / Reaction Biology for CDK/cyclin lines)
T24 sequence (P52564 whole entry): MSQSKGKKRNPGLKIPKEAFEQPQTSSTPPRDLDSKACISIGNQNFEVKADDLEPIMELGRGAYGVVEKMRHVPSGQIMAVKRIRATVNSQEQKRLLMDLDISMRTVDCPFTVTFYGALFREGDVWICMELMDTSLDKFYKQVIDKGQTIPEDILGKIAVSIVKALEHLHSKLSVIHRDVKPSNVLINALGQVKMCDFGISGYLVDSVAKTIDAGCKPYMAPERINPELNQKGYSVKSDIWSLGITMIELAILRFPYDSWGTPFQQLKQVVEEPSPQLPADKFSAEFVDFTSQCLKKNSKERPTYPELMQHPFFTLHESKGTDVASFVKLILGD
Procedure, shortened: as §1

[25] = target: T25, MAP3K3 (MEKK3) (Homo sapiens, UniProt Q99759)
T25 construct: purchased Thermo Fisher Scientific SelectScreen (plus Nanosyn / Reaction Biology for CDK/cyclin lines)
T25 sequence (Q99759 whole entry): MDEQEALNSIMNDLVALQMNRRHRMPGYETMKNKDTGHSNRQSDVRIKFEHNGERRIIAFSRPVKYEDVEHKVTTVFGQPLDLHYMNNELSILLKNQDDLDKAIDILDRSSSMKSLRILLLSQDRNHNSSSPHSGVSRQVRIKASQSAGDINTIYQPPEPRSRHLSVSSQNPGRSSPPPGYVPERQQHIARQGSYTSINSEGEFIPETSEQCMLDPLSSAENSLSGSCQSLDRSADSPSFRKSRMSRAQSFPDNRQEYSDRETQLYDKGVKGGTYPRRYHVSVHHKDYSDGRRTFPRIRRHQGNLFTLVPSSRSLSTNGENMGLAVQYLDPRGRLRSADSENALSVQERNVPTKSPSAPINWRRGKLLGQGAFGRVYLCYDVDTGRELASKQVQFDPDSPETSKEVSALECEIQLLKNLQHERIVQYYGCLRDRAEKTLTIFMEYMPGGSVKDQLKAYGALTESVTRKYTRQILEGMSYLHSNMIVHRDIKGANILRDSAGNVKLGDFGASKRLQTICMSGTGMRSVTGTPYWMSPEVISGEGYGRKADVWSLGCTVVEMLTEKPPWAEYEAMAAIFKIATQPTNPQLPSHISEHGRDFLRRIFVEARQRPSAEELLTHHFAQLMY
Procedure, shortened: as §1

[26] = target: T26, MAP4K3 (GLK) (Homo sapiens, UniProt Q8IVH8)
T26 construct: purchased Thermo Fisher Scientific SelectScreen (plus Nanosyn / Reaction Biology for CDK/cyclin lines)
Procedure, shortened: as §1

[27] = target: T27, MERTK (cMER) A708S (Homo sapiens, UniProt Q12866, A708S)
T27 construct: purchased Thermo Fisher Scientific SelectScreen (plus Nanosyn / Reaction Biology for CDK/cyclin lines)
Procedure, shortened: as §1

[28] = target: T28, MLCK (MLCK2) (Homo sapiens, UniProt Q32MK0)
T28 construct: purchased Thermo Fisher Scientific SelectScreen (plus Nanosyn / Reaction Biology for CDK/cyclin lines)
Procedure, shortened: as §1

[29] = target: T29, MLK4 (Homo sapiens, UniProt Q5TCX8)
T29 construct: purchased Thermo Fisher Scientific SelectScreen (plus Nanosyn / Reaction Biology for CDK/cyclin lines)
Procedure, shortened: as §1

[30] = target: T30, RIPK3 (Homo sapiens, UniProt Q9Y572)
T30 construct: purchased Thermo Fisher Scientific SelectScreen (plus Nanosyn / Reaction Biology for CDK/cyclin lines)
Procedure, shortened: as §1

[31] = target: T31, SIK1 (Homo sapiens, UniProt P57059)
T31 construct: purchased Thermo Fisher Scientific SelectScreen (plus Nanosyn / Reaction Biology for CDK/cyclin lines)
Procedure, shortened: as §1

[32] = target: T32, STK16 (PKL12) (Homo sapiens, UniProt O75716)
T32 construct: purchased Thermo Fisher Scientific SelectScreen (plus Nanosyn / Reaction Biology for CDK/cyclin lines)
Procedure, shortened: as §1

[33] = target: T33, STK17A (DRAK1) (Homo sapiens, UniProt Q9UEE5)
T33 construct: purchased Thermo Fisher Scientific SelectScreen (plus Nanosyn / Reaction Biology for CDK/cyclin lines)
T33 sequence (Q9UEE5 whole entry): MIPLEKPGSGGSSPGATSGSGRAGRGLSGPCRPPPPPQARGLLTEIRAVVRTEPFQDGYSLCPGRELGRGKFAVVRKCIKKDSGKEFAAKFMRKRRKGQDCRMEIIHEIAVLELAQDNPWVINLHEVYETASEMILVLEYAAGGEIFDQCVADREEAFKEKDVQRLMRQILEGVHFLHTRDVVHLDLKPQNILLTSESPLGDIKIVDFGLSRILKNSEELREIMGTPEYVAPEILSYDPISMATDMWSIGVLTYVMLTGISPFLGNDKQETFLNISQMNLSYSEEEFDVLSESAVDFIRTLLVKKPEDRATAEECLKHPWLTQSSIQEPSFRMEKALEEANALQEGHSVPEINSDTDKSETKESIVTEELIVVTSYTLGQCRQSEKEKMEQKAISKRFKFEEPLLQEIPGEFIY
Procedure, shortened: as §1

[34] = target: T34, TEC (Homo sapiens, UniProt P42680)
T34 construct: purchased Thermo Fisher Scientific SelectScreen (plus Nanosyn / Reaction Biology for CDK/cyclin lines)
Procedure, shortened: as §1

[35] = target: T35, TGFBR1 (ALK5) (Homo sapiens, UniProt P36897)
T35 construct: purchased Thermo Fisher Scientific SelectScreen (plus Nanosyn / Reaction Biology for CDK/cyclin lines)
Procedure, shortened: as §1

[36] = target: T36, VRK2 (Homo sapiens, UniProt Q86Y07)
T36 construct: purchased Thermo Fisher Scientific SelectScreen (plus Nanosyn / Reaction Biology for CDK/cyclin lines)
Procedure, shortened: as §1

[37] = target: T37, WNK2 (Homo sapiens, UniProt Q9Y3S1)
T37 construct: purchased Thermo Fisher Scientific SelectScreen (plus Nanosyn / Reaction Biology for CDK/cyclin lines)
Procedure, shortened: as §1

[38] = target: T38, WNK3 (Homo sapiens, UniProt Q9BYP7)
T38 construct: purchased Thermo Fisher Scientific SelectScreen (plus Nanosyn / Reaction Biology for CDK/cyclin lines)
Procedure, shortened: as §1

T1 sequence (Q2M2I8 whole entry): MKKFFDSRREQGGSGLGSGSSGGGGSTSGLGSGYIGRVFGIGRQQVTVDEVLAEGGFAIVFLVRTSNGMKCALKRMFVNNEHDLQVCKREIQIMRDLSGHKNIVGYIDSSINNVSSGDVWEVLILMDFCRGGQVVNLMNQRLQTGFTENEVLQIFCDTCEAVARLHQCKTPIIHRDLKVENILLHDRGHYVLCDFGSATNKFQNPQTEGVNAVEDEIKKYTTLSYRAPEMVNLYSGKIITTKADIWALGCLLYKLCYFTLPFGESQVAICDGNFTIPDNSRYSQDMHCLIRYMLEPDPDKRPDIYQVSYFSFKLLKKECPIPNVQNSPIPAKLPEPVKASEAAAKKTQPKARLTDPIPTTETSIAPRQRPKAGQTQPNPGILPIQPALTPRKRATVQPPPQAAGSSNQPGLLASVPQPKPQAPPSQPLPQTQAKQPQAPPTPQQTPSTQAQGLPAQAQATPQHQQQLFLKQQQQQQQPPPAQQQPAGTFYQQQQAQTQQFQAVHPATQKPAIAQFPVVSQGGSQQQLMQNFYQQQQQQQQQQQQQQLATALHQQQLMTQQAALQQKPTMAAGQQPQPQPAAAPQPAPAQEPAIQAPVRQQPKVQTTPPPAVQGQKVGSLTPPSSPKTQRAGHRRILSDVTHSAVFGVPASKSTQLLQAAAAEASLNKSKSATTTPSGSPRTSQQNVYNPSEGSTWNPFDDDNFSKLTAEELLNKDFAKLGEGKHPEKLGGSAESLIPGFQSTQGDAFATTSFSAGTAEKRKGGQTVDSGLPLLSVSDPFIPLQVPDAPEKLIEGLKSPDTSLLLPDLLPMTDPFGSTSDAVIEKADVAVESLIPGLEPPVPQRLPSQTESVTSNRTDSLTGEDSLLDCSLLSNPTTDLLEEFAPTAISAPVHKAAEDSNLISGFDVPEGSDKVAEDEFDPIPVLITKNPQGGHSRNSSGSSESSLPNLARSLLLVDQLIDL

NS(=O)(=O)c1ccc(Nc2ncc3cc4n(c3n2)C2(CCCCC2)C(=O)NN4)cc1 [INX-315]
inhibition at 0.1 µM [1]: 77%
inhibition at 0.1 µM [2]: 19%
inhibition at 0.1 µM [3]: 15%
inhibition at 0.1 µM [4]: 9%
inhibition at 0.1 µM [5]: 1%
inhibition at 0.1 µM [6]: -1%
inhibition at 0.1 µM [7]: -3%
inhibition at 0.1 µM [8]: 98%
inhibition at 0.1 µM [9]: 88%
inhibition at 0.1 µM [10]: 3%
inhibition at 0.1 µM [11]: -8%
inhibition at 0.1 µM [12]: 11%
inhibition at 0.1 µM [13]: 12%
inhibition at 0.1 µM [14]: 14%
inhibition at 0.1 µM [15]: 7%
inhibition at 0.1 µM [16]: 27%
inhibition at 0.1 µM [17]: 9%
inhibition at 0.1 µM [18]: 16%
inhibition at 0.1 µM [19]: 26%
inhibition at 0.1 µM [20]: 8%
inhibition at 0.1 µM [21]: 34%
inhibition at 0.1 µM [22]: 22%
inhibition at 0.1 µM [23]: 5%
inhibition at 0.1 µM [24]: -3%
inhibition at 0.1 µM [25]: 18%
inhibition at 0.1 µM [26]: 8%
inhibition at 0.1 µM [27]: 14%
inhibition at 0.1 µM [28]: 5%
inhibition at 0.1 µM [29]: -5%
inhibition at 0.1 µM [30]: -9%
inhibition at 0.1 µM [31]: 4%
inhibition at 0.1 µM [32]: 57%
inhibition at 0.1 µM [33]: 2%
inhibition at 0.1 µM [34]: 4%
inhibition at 0.1 µM [35]: 4%
inhibition at 0.1 µM [36]: 2%
inhibition at 0.1 µM [37]: -9%
inhibition at 0.1 µM [38]: 2%
